Blank lines part the entries; values can stand above or below the compound they belong to. Calls of active or inactive are those of the source. No cut-off for these calls is given here.
Columns and labels:
BaF3 = test: Cytotoxicity against mouse BaF3 cells harboring EPOR JAK2 V617F mutant measured after 24 hrs by XTT assay; format: functional, cell-based; conditions: BaF3, 24 h
[1] = Stability of compound in PBS measured after 24 hrs; format: physicochemical; conditions: buffer, 24 h
[2] = Stability of compound in mouse plasma measured after 24 hrs; format: ADME, cell-free; conditions: 24 h
[3] = Stability of compound in human plasma measured after 24 hrs; format: ADME, cell-free; conditions: 24 h
[4] = Cytotoxicity against HUVEC cells assessed as inhibition of cell growth; format: toxicity, cell-based; conditions: human
[5] = Prodrug release in PBS buffer in presence of NADH and nitroreductase assessed as N-tert-butyl-3-[[5-methyl-2-(4-piperazin-1-ylanilino)pyrimidin-4-yl]amino]benzenesulfonamide formation at 10 uM and measured after 120 mins under hypoxic condition by LC-MS/MS analysis; format: ADME; conditions: 2 h
[6] = Prodrug release in PBS buffer in presence of NADH and nitroreductase assessed as 3-cyclopropyl-1-(3-{5-[(morpholin-4-yl)methyl]-1H-1,3-benzodiazol-2-yl}-1H-pyrazol-4-yl)urea formation at 10 uM measured after 120 mins under hypoxic condition by LC-MS/MS analysis; format: ADME; conditions: 2 h
[7] = Prodrug release in HEL cells assessed as N-tert-butyl-3-[[5-methyl-2-(4-piperazin-1-ylanilino)pyrimidin-4-yl]amino]benzenesulfonamide formation at 1 uM incubated for 24 hrs under hypoxic condition by LC-MS/MS analysis; format: ADME, cell-based; conditions: human
[8] = Prodrug release in HEL cells assessed as 3-cyclopropyl-1-(3-{5-[(morpholin-4-yl)methyl]-1H-1,3-benzodiazol-2-yl}-1H-pyrazol-4-yl)urea formation at 1 uM incubated for 24 hrs under hypoxic condition by LC-MS/MS analysis; format: ADME, cell-based; conditions: human
HEL [9] = test: Cytotoxicity against HEL cells assessed as inhibition of cell growth incubated under hypoxic condition; format: functional, cell-based; conditions: Homo sapiens
HEL [10] = test: Cytotoxicity against HEL cells assessed as inhibition of cell growth incubated under normoxic condition; format: functional, cell-based; conditions: Homo sapiens
HEL [11] = test: Inhibition of JAK/STAT phosphorylation in HEL cells assessed as reduction in STAT3 phosphorylation at 3 uM incubated under hypoxic condition by Western blot analysis; format: cell-based; conditions: Homo sapiens
HEL [12] = test: Inhibition of JAK/STAT phosphorylation in HEL cells assessed as reduction in STAT5 phosphorylation at 3 uM incubated under hypoxic condition by Western blot analysis; format: cell-based; conditions: Homo sapiens
HEL [13] = test: Inhibition of JAK/STAT phosphorylation in HEL cells assessed as reduction in STAT3 phosphorylation at 3 uM incubated under normoxic condition by Western blot analysis; format: cell-based; conditions: Homo sapiens
HEL [14] = test: Inhibition of JAK/STAT phosphorylation in HEL cells assessed as reduction in STAT5 phosphorylation at 3 uM incubated under normoxic condition by Western blot analysis; format: cell-based; conditions: Homo sapiens
HEL [15] = test: Antitumor activity against HEL cells xenografted in Balb/c nude mouse assessed as tumor growth inhibition at 40 mg/kg, ip administered once daily for 14 consecutive days relative to control; format: functional, Homo sapiens; conditions: 336 h, time 14 day, read-out: TGI
HEL [16] = test: Antitumor activity against HEL cells xenografted in Balb/c nude mouse assessed as tumor growth inhibition at 80 mg/kg, ip administered once daily for 14 consecutive days relative to control; format: functional, Homo sapiens; conditions: 336 h, time 14 day, read-out: TGI
HEL [17] = test: Antitumor activity against HEL cells xenografted in Balb/c nude mouse assessed as induction of apoptosis in tumor at 40 to 80 mg/kg, ip administered once daily for 14 consecutive days by TUNEL assay relative to control; format: functional, organism-based; conditions: Homo sapiens, dose 40-80 mg/kg, time 14.0 day
[18] = Toxicity in Balb/c nude mouse xenografted with HEL cells assessed as reduction in body weight at 40 to 80 mg/kg, ip administered for 14 consecutive days; format: organism-based; conditions: in vivo, 336 h, dose 40-80 mg/kg, time 14 day
Mus musculus [19] = test: In vivo inhibition of JAK/STAT signalling in Balb/c nude mouse xenografted with HEL cells assessed as reduction in STAT3 phosphorylation in heart at 40 to 80 mg/kg, ip administered for 14 consecutive days by Western blot analysis; format: functional, organism-based; conditions: dose 40-80 mg/kg, time 14.0 day
Mus musculus [20] = test: In vivo inhibition of JAK/STAT signalling in Balb/c nude mouse xenografted with HEL cells assessed as reduction in STAT5 phosphorylation in heart at 40 to 80 mg/kg, ip administered for 14 consecutive days by Western blot analysis; format: functional, organism-based; conditions: dose 40-80 mg/kg, time 14.0 day
Mus musculus [21] = test: In vivo inhibition of JAK/STAT signalling in Balb/c nude mouse xenografted with HEL cells assessed as reduction in STAT3 phosphorylation in liver at 40 to 80 mg/kg, ip administered for 14 consecutive days by Western blot analysis; format: functional, organism-based; conditions: dose 40-80 mg/kg, time 14.0 day
Mus musculus [22] = test: In vivo inhibition of JAK/STAT signalling in Balb/c nude mouse xenografted with HEL cells assessed as reduction in STAT5 phosphorylation in liver at 40 to 80 mg/kg, ip administered for 14 consecutive days by Western blot analysis; format: functional, organism-based; conditions: dose 40-80 mg/kg, time 14.0 day
Mus musculus [23] = test: In vivo inhibition of JAK/STAT signalling in Balb/c nude mouse xenografted with HEL cells assessed as reduction in STAT3 phosphorylation in spleen at 40 to 80 mg/kg, ip administered for 14 consecutive days by Western blot analysis; format: functional, organism-based; conditions: dose 40-80 mg/kg, time 14.0 day
Mus musculus [24] = test: In vivo inhibition of JAK/STAT signalling in Balb/c nude mouse xenografted with HEL cells assessed as reduction in STAT5 phosphorylation in spleen at 40 to 80 mg/kg, ip administered for 14 consecutive days by Western blot analysis; format: functional, organism-based; conditions: dose 40-80 mg/kg, time 14.0 day
Mus musculus [25] = test: In vivo inhibition of JAK/STAT signalling in Balb/c nude mouse xenografted with HEL cells assessed as reduction in STAT3 phosphorylation in lung at 40 to 80 mg/kg, ip administered for 14 consecutive days by Western blot analysis; format: functional, organism-based; conditions: dose 40-80 mg/kg, time 14.0 day
Mus musculus [26] = test: In vivo inhibition of JAK/STAT signalling in Balb/c nude mouse xenografted with HEL cells assessed as reduction in STAT5 phosphorylation in lung at 40 to 80 mg/kg, ip administered for 14 consecutive days by Western blot analysis; format: functional, organism-based; conditions: dose 40-80 mg/kg, time 14.0 day
Mus musculus [27] = test: In vivo inhibition of JAK/STAT signalling in Balb/c nude mouse xenografted with HEL cells assessed as reduction in STAT3 phosphorylation in kidney at 40 to 80 mg/kg, ip administered for 14 consecutive days by Western blot analysis; format: functional, organism-based; conditions: dose 40-80 mg/kg, time 14.0 day
Mus musculus [28] = test: In vivo inhibition of JAK/STAT signalling in Balb/c nude mouse xenografted with HEL cells assessed as reduction in STAT5 phosphorylation in kidney at 40 to 80 mg/kg, ip administered for 14 consecutive days by Western blot analysis; format: functional, organism-based; conditions: dose 40-80 mg/kg, time 14.0 day
HEL [29] = test: Cytotoxicity against HEL cells assessed as inhibition of cell growth; format: functional, cell-based; conditions: Homo sapiens
[30] = Cytotoxicity against HUVEC cells assessed as inhibition of cell growth incubated in presence of N-tert-butyl-3-[[5-methyl-2-(4-piperazin-1-ylanilino)pyrimidin-4-yl]amino]benzenesulfonamide; conditions: human

SMILES: Cc1cnc(Nc2ccc(N3CCN(C)CC3)cc2)nc1Nc1cccc(S(=O)(=O)NC(C)(C)C)c1
IC50 (BaF3): 170 nM

Stability [1]: Stable
Stability [2]: Stable
Stability [3]: Stable
Drug metabolism [5]: 6.57 µM
Drug metabolism [6]: 6.49 µM
Drug metabolism [7]: Metabolite_Detected
Drug metabolism [8]: Metabolite_Detected
SMILES: Cc1cc(COC(=O)N2CCN(c3ccc(Nc4ncc(C)c(Nc5cccc(S(=O)(=O)NC(C)(C)C)c5)n4)cc3)CC2)c(OCc2cnc([N+](=O)[O-])n2C)c(COC(=O)n2cc(NC(=O)NC3CC3)c(-c3nc4cc(CN5CCOCC5)ccc4[nH]3)n2)c1
IC50 [4]: 84400 nM
IC50 (HEL [9]): 3100 nM
IC50 (HEL [10]): > 200000 nM
inhibition (HEL [11]): Active
inhibition (HEL [12]): Active
inhibition (HEL [13]): inactive
inhibition (HEL [14]): inactive
inhibition in vivo at 40 mg/kg (HEL [15]): 59.8%
inhibition in vivo at 80 mg/kg (HEL [16]): 88.9%
Activity (HEL [17]): Active
Activity [18]: Non-Toxic
inhibition (Mus musculus [19]): inactive
inhibition (Mus musculus [20]): inactive
inhibition (Mus musculus [21]): inactive
inhibition (Mus musculus [22]): inactive
inhibition (Mus musculus [23]): inactive
inhibition (Mus musculus [24]): inactive
inhibition (Mus musculus [25]): inactive
inhibition (Mus musculus [26]): inactive
inhibition (Mus musculus [27]): inactive
inhibition (Mus musculus [28]): inactive

SMILES: CC[C@@](C)(Nc1ccnc(-c2c[nH]c3ncccc23)n1)C(=O)NCC(F)(F)F [DECERNOTINIB]
IC50 (HEL [29]): 2560 nM

SMILES: O=C(Nc1c[nH]nc1-c1nc2cc(CN3CCOCC3)ccc2[nH]1)NC1CC1 [AT-9283]
IC50 [4]: 1770 nM
IC50 [30]: 1760 nM

— ChEMBL document CHEMBL5385890, “A JAK tyrosine kinase and pseudokinase Co-inhibition strategy combines enhanced potency and on-demand activation” (Eur J Med Chem, 2023)
